# Source: ChEMBL document CHEMBL4052698, “Design, synthesis and SAR of a novel series of heterocyclic phenylpropanoic acids as GPR120 agonists” (Bioorg Med Chem Lett, 2017)
# Activity calls are given as the source filed them. No cut-off for these calls is given here.
# Experiments:
# [1] = molecular target: T1, Free fatty acid receptor 4 (Homo sapiens, UniProt Q5NUL3); assay: Agonist activity at human GPR120 expressed in CHO-K1 cells assessed as […] by DiscoveRx PathHunter beta-arrestin assay; format: functional, cell-based
# T1 sequence (Q5NUL3 whole entry): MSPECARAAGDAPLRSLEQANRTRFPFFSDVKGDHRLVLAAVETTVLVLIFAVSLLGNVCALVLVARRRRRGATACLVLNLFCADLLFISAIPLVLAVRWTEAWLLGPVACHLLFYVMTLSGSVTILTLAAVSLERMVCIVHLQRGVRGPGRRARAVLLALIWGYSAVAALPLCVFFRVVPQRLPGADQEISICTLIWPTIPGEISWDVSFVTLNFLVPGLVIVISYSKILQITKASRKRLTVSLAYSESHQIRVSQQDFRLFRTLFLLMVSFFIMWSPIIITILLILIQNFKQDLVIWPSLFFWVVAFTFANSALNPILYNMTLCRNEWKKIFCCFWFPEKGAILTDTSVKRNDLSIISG
# [2] = molecular target: Free fatty acid receptor 4 (Homo sapiens, UniProt Q5NUL3); assay: Agonist activity at human GPR120 short splice variant expressed in HEK293 cells assessed as increase in intracellular calcium flux by Fluo-4 NW dye based FLIPR assay; format: functional, cell-based
# [3] = Stability in mouse liver microsomes assessed as parent compound remaining after 10 mins; format: ADME, microsome; details: read-out: Stability
# [4] = Stability in rat liver microsomes assessed as parent compound remaining after 10 mins; format: ADME, microsome; details: read-out: Stability
# [5] = Stability in human liver microsomes assessed as parent compound remaining after 10 mins; format: ADME, microsome; details: read-out: Stability
# Mus musculus [6] = assay: Antidiabetic activity in C57bl/6J mouse assessed as reduction in blood glucose delta AUC level at 10 mg/kg, po dosed 30 mins before glucose challenge and measured 90 mins post glucose injection by intraperitoneal glucose tolerance test; format: functional; parameters: scale not given: the % may be the effect or the level left
# [7] = Clearance in C57/black 6J mouse at 5 mg/kg, iv by LC-MS/MS method; format: ADME, organism-based; details: in vivo
# Mus musculus [8] = assay: Antidiabetic activity in C57bl/6J mouse assessed as reduction in blood glucose delta AUC level at 3 mg/kg, po dosed 30 mins before glucose challenge and measured 90 mins post glucose injection by intraperitoneal glucose tolerance test; format: functional; parameters: scale not given: the % may be the effect or the level left
# [9] = Cmax in C57/black 6J mouse at 20 mg/kg dosed as oral gavage by LC-MS/MS method; format: ADME, organism-based; parameters: dose 20 mg/kg, route oral; details: in vivo
# [10] = Volume of distribution at steady state in C57/black 6J mouse at 5 mg/kg, iv by LC-MS/MS method; format: ADME, organism-based; details: in vivo, read-out: Vdss
# [11] = Protein binding in mouse plasma; format: ADME, cell-free; details: read-out: PPB (converted)
# [12] = (§1) Oral bioavailability in C57/black 6J mouse at 20 mg/kg by LC-MS/MS method; format: ADME, organism-based; details: C57/black 6J, in vivo
# Mus musculus [13] = assay: Antidiabetic activity in C57bl/6J mouse assessed as reduction in blood glucose level at 10 mg/kg, po dosed 30 mins before glucose challenge by intraperitoneal glucose tolerance test; format: functional, organism-based
# [14] = Half life in C57/black 6J mouse at 20 mg/kg dosed as oral gavage by LC-MS/MS method; format: ADME, organism-based; details: in vivo
# [15] = Protein binding in rat plasma; format: ADME, cell-free; details: read-out: PPB (converted)
# [16] = Protein binding in human plasma; format: ADME, cell-free; details: read-out: PPB (converted)
# Mus musculus [17] = assay: Antidiabetic activity in C57bl/6J mouse assessed as reduction in blood glucose delta AUC level at 1 mg/kg, po dosed 30 mins before glucose challenge and measured 90 mins post glucose injection by intraperitoneal glucose tolerance test; format: functional; parameters: scale not given: the % may be the effect or the level left
# [18] = AUClast in C57/black 6J mouse at 20 mg/kg dosed as oral gavage by LC-MS/MS method; format: ADME, organism-based; parameters: dose 20 mg/kg, route oral, time 0 - last; details: in vivo
# Mus musculus [19] = assay: as §1; format: ADME, organism-based; details: in vivo
# Mus musculus [20] = assay: Antidiabetic activity in C57bl/6J mouse assessed as reduction in blood glucose delta AUC level at 1 to 10 mg/kg, po dosed 30 mins before glucose challenge by intraperitoneal glucose tolerance test; format: functional, organism-based
# Mus musculus [21] = assay: Antidiabetic activity in C57bl/6J mouse assessed as reduction in blood glucose level at 1 to 10 mg/kg, po dosed 30 mins before glucose challenge by intraperitoneal glucose tolerance test; format: functional, organism-based
smiles,measurement,setting,value
Cc1noc(-c2ccc(Cl)cc2)c1COc1ccc(CCC(=O)O)c(C)c1C,EC50,[1],810 nM
same,EC50,[2],350 nM
Cc1cc(OCc2c(-c3ccc(Cl)cc3)noc2C(F)(F)F)c(F)cc1CCC(=O)O,EC50,[2],410 nM
Cc1onc(-c2ccc(Cl)cc2)c1COc1ccc(CCC(=O)O)c(C)c1C,EC50,[1],760 nM
same,EC50,[2],270 nM
CCc1onc(-c2ccc(Cl)cc2)c1COc1ccc(CCC(=O)O)c(C)c1C,remaining at 10 min,[3],50.2%
same,remaining at 10 min,[4],45.6%
same,remaining at 10 min,[5],66.3%
same,EC50,[1],400 nM
same,EC50,[2],740 nM
O=C(O)CCc1cc(F)c(OCc2c(-c3ccc(Cl)cc3)noc2C(F)(F)F)c(F)c1,Activity,Mus musculus [6],-56%
same,remaining at 10 min,[3],105%
same,clearance,[7],7.18 mL/min/kg
same,remaining at 10 min,[4],98.9%
same,Activity,Mus musculus [8],23%
same,Cmax,[9],12700 ng/mL
same,Vd,[10],1.26 L/kg
same,fraction unbound,[11],0.0014
same,bioavailability,[12],93%
same,Activity,Mus musculus [13],Active
same,half-life,[14],2.07 h
same,fraction unbound,[15],0.0019
same,fraction unbound,[16],0.0007
same,Activity,Mus musculus [17],20%
same,remaining at 10 min,[5],113%
same,AUC(0-t),[18],43200 ng·h/mL
same,EC50,[1],160 nM
same,EC50,[2],71 nM
CCc1ccc(-c2sncc2COc2ccc(CCC(=O)O)c(C)c2C)cc1,EC50,[2],190 nM
Cc1c(CCC(=O)O)ccc(OCc2c(-c3ccc(Cl)cc3)noc2-c2ccccc2)c1C,EC50,[2],2830 nM
Cc1c(CCC(=O)O)ccc(OCc2cnnn2-c2ccc(Cl)cc2)c1C,EC50,[2],> 5000 nM
Cc1c(CCC(=O)O)ccc(OCc2c(-c3ccc(Cl)cc3)noc2C2CC2)c1C,EC50,[1],1090 nM
same,EC50,[2],1070 nM
CCc1ccc(-c2cscc2COc2ccc(CCC(=O)O)c(C)c2C)cc1,EC50,[2],142 nM
Cc1c(CCC(=O)O)ccc(OCc2conc2-c2ccc(Cl)cc2)c1C,EC50,[1],2760 nM
same,EC50,[2],1440 nM
O=C(O)CCc1cc(F)c(OCc2c(-c3ccc(C4CC4)cc3)noc2C(F)(F)F)c(F)c1,EC50,[2],170 nM
COc1ccc(-c2noc(C(F)(F)F)c2COc2c(F)cc(CCC(=O)O)cc2F)cc1,EC50,[2],1130 nM
Cc1c(CCC(=O)O)ccc(OCc2ccnn2-c2ccc(Cl)cc2)c1C,EC50,[1],2030 nM
same,EC50,[2],610 nM
Cc1c(CCC(=O)O)ccc(OCc2scnc2-c2ccc(Cl)cc2)c1C,EC50,[2],81 nM
Cc1c(CCC(=O)O)ccc(OCc2ccccc2-c2ccc(Cl)cc2)c1C,EC50,[2],220 nM
O=C(O)CCc1ccc(OCc2c(-c3ccc(Cl)cc3)noc2C(F)(F)F)cc1C(F)(F)F,EC50,[2],1450 nM
CCc1ccc(-n2cccc2COc2ccc(CCC(=O)O)c(C)c2C)cc1,EC50,[1],750 nM
same,EC50,[2],100 nM
CCCc1onc(-c2ccc(Cl)cc2)c1COc1ccc(CCC(=O)O)c(C)c1C,remaining at 10 min,[3],48.3%
same,remaining at 10 min,[4],38.4%
same,remaining at 10 min,[5],79.3%
same,EC50,[1],130 nM
same,EC50,[2],1060 nM
O=C(O)CCc1cc(F)c(OCc2c(-c3ccc(C(F)(F)F)cc3)noc2C(F)(F)F)c(F)c1,EC50,[1],190 nM
same,EC50,[2],340 nM
O=C(O)CCc1ccc(OCc2c(-c3ccc(Cl)cc3)noc2C(F)(F)F)c(F)c1F,remaining at 10 min,[3],109%
same,remaining at 10 min,[4],106%
same,remaining at 10 min,[5],99.6%
same,EC50,[1],140 nM
same,EC50,[2],670 nM
O=C(O)CCc1cc(F)c(OCc2c(-c3ccc(F)cc3Cl)noc2C(F)(F)F)c(F)c1,remaining at 10 min,[3],99.3%
same,remaining at 10 min,[4],92%
same,remaining at 10 min,[5],108%
same,EC50,[1],290 nM
same,EC50,[2],71 nM
Cc1ccc(-c2noc(C(F)(F)F)c2COc2c(F)cc(CCC(=O)O)cc2F)cc1,remaining at 10 min,[3],84.5%
same,remaining at 10 min,[4],37.9%
same,remaining at 10 min,[5],64.4%
same,EC50,[1],180 nM
same,EC50,[2],120 nM
O=C(O)CCc1ccc(OCc2c(-c3ccccc3)noc2C(F)(F)F)cc1,EC50,[2],150 nM
O=C(O)CCc1cc(F)c(OCc2c(-c3ccc(Br)cc3)noc2C(F)(F)F)c(F)c1,remaining at 10 min,[3],94.1%
same,remaining at 10 min,[4],72.3%
same,remaining at 10 min,[5],105%
same,EC50,[2],120 nM
O=C(O)CCc1cc(F)c(OCc2c(-c3ccccc3)noc2C(F)(F)F)c(F)c1,remaining at 10 min,[3],93%
same,remaining at 10 min,[4],110%
same,Vd,[10],0.336 L/kg
same,fraction unbound,[11],0.0047
same,F,Mus musculus [19],49.5%
same,half-life,[14],2.58 h
same,fraction unbound,[15],0.0122
same,fraction unbound,[16],0.0017
same,remaining at 10 min,[5],95.6%
same,EC50,[1],69 nM
same,EC50,[2],170 nM
Cc1c(CCC(=O)O)ccc(OCc2cccn2-c2ccc(Cl)cc2)c1C,EC50,[1],930 nM
same,EC50,[2],145 nM
CCc1ccc(-c2noc(C(F)(F)F)c2COc2c(F)cc(CCC(=O)O)cc2F)cc1,Activity,Mus musculus [6],-54%
same,Activity,Mus musculus [20],Dose-dependent effect
same,clearance,[7],27.1 mL/min/kg
same,Activity,Mus musculus [8],-35%
same,Cmax,[9],7670 ng/mL
same,Vd,[10],0.898 L/kg
same,fraction unbound,[11],0.0008
same,bioavailability,[12],78.7%
same,half-life,[14],1.03 h
same,fraction unbound,[15],0.0011
same,Activity,Mus musculus [21],Dose-dependent effect
same,fraction unbound,[16],0.0006
same,Activity,Mus musculus [17],30%
same,AUC(0-t),[18],9660 ng·h/mL
same,EC50,[1],60 nM
same,EC50,[2],57 nM
CCc1ccc(-n2nccc2COc2ccc(CCC(=O)O)c(C)c2C)cc1,EC50,[1],1150 nM
same,EC50,[2],520 nM
Cc1c(CCC(=O)O)ccc(OCc2c(-c3ccc(Cl)cc3)noc2C(F)(F)F)c1C,remaining at 10 min,[3],91.2%
same,remaining at 10 min,[4],68%
same,remaining at 10 min,[5],80.9%
same,EC50,[1],160 nM
same,EC50,[2],680 nM
Cc1c(CCC(=O)O)ccc(OCc2csnc2-c2ccc(Cl)cc2)c1C,EC50,[2],217 nM
Cc1ccc(-c2noc(C(F)(F)F)c2COc2c(F)cc(CC(C)C(=O)O)cc2F)cc1 (centres undefined),remaining at 10 min,[3],86.3%
same,remaining at 10 min,[4],54.3%
same,remaining at 10 min,[5],93%
same,EC50,[1],160 nM
same,EC50,[2],110 nM
Cc1c(CCC(=O)O)ccc(OCc2nccn2-c2ccc(Cl)cc2)c1C,EC50,[2],> 5000 nM
O=C(O)CCc1cc(F)c(OCc2c(-c3ccc(F)cc3)noc2C(F)(F)F)c(F)c1,remaining at 10 min,[3],119%
same,remaining at 10 min,[4],66.2%
same,remaining at 10 min,[5],103%
same,EC50,[1],230 nM
same,EC50,[2],150 nM
Cc1c(CCC(=O)O)ccc(OCc2ncoc2-c2ccc(Cl)cc2)c1C,EC50,[2],1750 nM
Cc1c(CCC(=O)O)ccc(OCc2nnnn2-c2ccc(Cl)cc2)c1C,EC50,[2],> 5000 nM
CCc1ccc(-c2ccsc2COc2ccc(CCC(=O)O)c(C)c2C)cc1,EC50,[1],900 nM
same,EC50,[2],160 nM
